In patent US10472333B2, “P2X4 receptor antagonist” (NIPPON CHEMIPHAR CO., LTD., priority 2013, dated 2019) one finds IC50 data, which are given here for 13 molecules.

Structures can show the parent of a compound that is named as a salt. Where two headings read alike, the source gives them in different places.

The target in this assay is T1, human P2X4 receptor (Homo sapiens, UniProt Q99571).
T1 sequence (Q99571 1-388): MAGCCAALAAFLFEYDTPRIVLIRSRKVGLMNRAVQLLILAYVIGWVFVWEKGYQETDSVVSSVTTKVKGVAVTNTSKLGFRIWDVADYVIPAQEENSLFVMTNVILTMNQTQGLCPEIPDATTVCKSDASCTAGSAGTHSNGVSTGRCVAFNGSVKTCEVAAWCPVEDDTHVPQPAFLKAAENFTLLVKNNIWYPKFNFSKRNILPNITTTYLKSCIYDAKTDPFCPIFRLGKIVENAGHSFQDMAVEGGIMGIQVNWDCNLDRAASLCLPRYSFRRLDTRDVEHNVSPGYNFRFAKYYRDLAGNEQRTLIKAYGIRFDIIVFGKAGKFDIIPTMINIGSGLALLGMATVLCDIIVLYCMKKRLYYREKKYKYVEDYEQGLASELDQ
Nature of the assay: P2X4 receptor antagonist activity, ATP-induced intracellular calcium (Fura-2 AM) in 1321N1 cells stably expressing human P2X4 receptor. Type of assay: cell-based. (Calcium assays in cells follow changes in intracellular calcium, usually with a dye or a luminescent sensor.)

Setting [1] is: Table 9, 1321N1 cells expressing human P2X4, test substance 15 minutes before ATP, read-out: Inhibitory activity IC50.

As a reminder, the IC50 is the concentration that gives 50% inhibition. On to `CCc1c(O)cccc1C(=O)Nc1ccc(C2=NCC(=O)Nc3c2ccc2ccccc32)cc1` [Example 2, 2-Ethyl-3-hydroxy-N-[4-(2-oxo-2,3-dihydro-1H-naphtho[1,2-e][1,4]-diazepin-5-yl)phenyl]benzamide], for which the half-maximal inhibitory concentration (IC50) came to 770 nM.

For the molecule `CCc1ncccc1C(=O)Nc1ccc(C2=NCC(=O)Nc3c2ccc2ccccc32)cc1` [Example 3, 2-Ethyl-N-[4-(2-oxo-2,3-dihydro-1H-naphtho[1,2-e][1,4]-diazepin-5-yl)phenyl]nicotinamide dihydrochloride], the IC50 came out at 1600 nM.

Consider `CCc1cccc(O)c1C(=O)Nc1ccc(C2=NCC(=O)Nc3c2ccc2ccccc32)cc1` [Example 4, 2-Ethyl-6-hydroxy-N-[4-(2-oxo-2,3-dihydro-1H-naphtho[1,2-e][1,4]-diazepin-5-yl)phenyl]benzamide], for which the IC50 amounted to 1500 nM.

Take `COc1ccccc1CC(=O)Nc1ccc(C2=NCC(=O)Nc3c2ccc2ccccc32)cc1` [Example 7, 2(2-Methoxyphenyl)-N-[4-(2-oxo-2,3-dihydro-1H-naphtho[1,2-e][1,4]-diazepin-5-yl)phenyl]acetamide]: the IC50 came to 970 nM.

In the case of `CC(C)(C)c1ccccc1C(=O)Nc1ccc(N2C(=O)CC(=O)Nc3c2ccc2ccccc32)cc1F` [Example 12, 2-tert-Butyl-N-[4-(2,4-dioxo-3,4-dihydro-1H-naphtho[2,1-b][1,4]diazepin-5(2H)-yl)2-fluorophenyl]benzamide], the IC50 under setting [1] is 370 nM.

Consider `CN(C)c1ncccc1C(=O)Nc1ccc(N2C(=O)CC(=O)Nc3c2ccc2ccccc32)cc1` [Example 14, 2-(Dimethylamino)-N-[4-(2,4-dioxo-2,3-dihydro-1H-naphtho[1,2-b][1,4]diazepin-5(2H)-yl)phenyl]nicotinamide hydrochloride], for which, under setting [1], the IC50 was found to be 590 nM.

As for `O=C1CC(=O)N(c2ccc(NC(=O)c3cccnc3N3CCOCC3)cc2)c2ccc3ccccc3c2N1` [Example 18, N-[4-(2,4-Dioxo-3,4-dihydro-1H-naphtho[1,2-b][1,4]-diazepin-5(2H)-yl)phenyl]-2-(morpholin-4-yl)-nicotinamide hydrochloride], where the note is “Table 10, 1321N1 cells expressing human P2X4, test substance 15 minutes before ATP, read-out: Inhibitory activity IC50”, the half-maximal inhibitory concentration (IC50) came to 1300 nM.

As to `O=C1CN=C(c2ccc(NC(=O)c3cccnc3-n3cccc3)cc2)c2ccc3ccccc3c2N1` [Example 19, N-[4-(2-Oxo-2,3-dihydro-1H-naphtho[1,2-e][1,4]-diazepin-5-yl)phenyl]-2-(1H-pyrrol-1-yl)nicotinamide dihydrochloride], the concentration for half-maximal inhibition (IC50) was 2400 nM.

Regarding `O=C1CN=C(c2ccc(NC(=O)c3cccnc3N3CCOCC3)cc2)c2ccc3ccccc3c2N1` [Example 20, 2-(Morpholin-4-yl)-N-[4-(2-oxo-2,3-dihydro-1H-naphtho[1,2-e][1,4]-diazepin-5-yl)phenyl]nicotinamide dihydrochloride], the 50% inhibitory concentration (IC50) is 2500 nM.

Regarding `O=C1CN=C(c2ccc(NC(=O)c3cccnc3N3CCCC3)cc2)c2ccc3ccccc3c2N1` [Example 21, N-[4-(2-Oxo-2,3-dihydro-1H-naphtho[1,2-e][1,4]-diazepin-5-yl)phenyl]-2-(pyrrolidin-1-yl)nicotinamide dihydrochloride], the IC50 stood at 1300 nM.

On to `CN(C)c1ccncc1C(=O)Nc1ccc(C2=NCC(=O)Nc3c2ccc2ccccc32)cc1` [Example 22, 4-(Dimethylamino)-N-[4-(2-oxo-2,3-dihydro-1H-naphtho[1,2-e][1,4]diazepin-5 yl)phenyl]nicotinamide dihydrochloride], for which the IC50 worked out at 1500 nM.

In the case of `CC(C)c1ncccc1C(=O)Nc1ccc(C2=NCC(=O)Nc3c2ccc2ccccc32)cc1` [Example 23, 2-Isopropyl-N-[4-(2-oxo-2,3-dihydro-1H-naphtho[1,2-e][1,4]diazepin-5 yl)phenyl]nicotinamide dihydrochloride], the IC50 was determined as 2300 nM.

Consider `CC(C)Nc1ncccc1C(=O)Nc1ccc(C2=NCC(=O)Nc3c2ccc2ccccc32)cc1` [Example 24, 2-(Isopropylamino)-N-[4-(2-oxo-2,3-dihydro-1H-naphtho[1,2-e][1,4]diazepin-5-yl)phenyl]nicotinamide dihydrochloride], for which the 50% inhibitory concentration (IC50) was 8600 nM.
